We go through three compounds from paper PMC3984052 (Bioorganic & medicinal chemistry, 2014).

SMILES strings stand for the structures.

For series [1] the following is noted: in vivo; for Tolerability after repeated dosing: mouse.
In series [2] the test system is PrP^C on the cell surface of human T98G glioblastoma cells. It counts as cell-based. Conditions: EC50 ratio.

For `COc1ccc(Cl)cc1C(=O)N1CCN(c2cccc(Cl)c2)CC1` [IND30802], in series [1] (female, CD-1, mouse), the “Brain concentration relative to the EC50 value determined by ELISA” value is listed as 100 ×. Also, the “Tolerability after repeated dosing” value in series [1] was “well tolerated”.
As to `NC(=O)c1ccccc1NC(=O)c1cccnc1N1CCCCC1` [IND87406], the “Tolerability after repeated dosing” value in series [1] is “well tolerated”.
As to `O=C(Cc1ccc(-c2ccccc2)cc1)NCc1ccccc1` [IND116065], in series [2], the “Potency relative to the bromo analog (IND61769)” value was 5 fold.
